From EP0908457B1, “3-(1,2-benzisothiazol- and isoxazol-5-Y1)-2,4(1H,3H)-pyrimidinedione or thione and 3-(1,2-benzisothiazol- and isoxazol-5-y1)-4(3H)-pyrimidinone or thione herbicidal agents” (BASF AKTIENGESELLSCHAFT, priority 1997, dated 1999)

Key:
[1] = system: Monochoria vaginalis, Presl.; assay: Preemergence weed control under flooded paddy conditions, MOOVA (Monochoria); type: in vivo; conditions: preemergence weeds, flooded paddy, rated three to four weeks after treatment
[2] = system: Oryza sativa, (L.) Tebonnet; assay: Rice tolerance to post-transplant applications under flooded paddy conditions (Example 187), ORYSAT (Rice, Tebonnet); conditions: rated three to four weeks after treatment
Sagittaria pygmaea, L. = assay: Preemergence weed control under flooded paddy conditions, SAGPY (Arrowhead (Pygmaea)); type: in vivo; conditions: preemergence weeds, flooded paddy, rated three to four weeks after treatment
[3] = system: Echinochloa oryzoides (Ard.) Fritsch.; assay: Preemergence weed control under flooded paddy conditions, ECHORC (Watergrass (Calif.)); type: in vivo; conditions: preemergence weeds, flooded paddy, rated three to four weeks after treatment
[4] = system: Cyperus serotinus, Rottb.; assay: Preemergence weed control under flooded paddy conditions, CYPSE (Flatsedge); type: in vivo; conditions: preemergence weeds, rated three to four weeks after treatment
Cyperus iria = assay: Preemergence weed control under flooded paddy conditions, CYPIR (Rice Flatsedge); type: in vivo; conditions: preemergence weeds, flooded paddy, rated three to four weeks after treatment
Also: meaning of each grade not given here.

| Structure (SMILES) | herbicidal effect rating, MOOVA ([1]; Rate 0.0320 kg/ha) | herbicidal effect rating, MOOVA ([1]; Rate 0.0620 kg/ha) | herbicidal effect rating, MOOVA ([1]; Rate 0.1250 kg/ha) | herbicidal effect rating, MOOVA ([1]; Rate 0.2500 kg/ha) | herbicidal effect rating ORYSAT ([2]; Rate 0.0320 kg/ha) | herbicidal effect rating ORYSAT ([2]; Rate 0.0620 kg/ha) | herbicidal effect rating ORYSAT ([2]; Rate 0.1250 kg/ha) | herbicidal effect rating ORYSAT ([2]; Rate 0.2500 kg/ha) | herbicidal effect rating, SAGPY (Sagittaria pygmaea, L.; Rate 0.0320 kg/ha) | herbicidal effect rating, SAGPY (Sagittaria pygmaea, L.; Rate 0.0620 kg/ha) | herbicidal effect rating, SAGPY (Sagittaria pygmaea, L.; Rate 0.1250 kg/ha) | herbicidal effect rating, SAGPY (Sagittaria pygmaea, L.; Rate 0.2500 kg/ha) | herbicidal effect rating, ECHORC ([3]; Rate 0.0320 kg/ha) | herbicidal effect rating, ECHORC ([3]; Rate 0.0620 kg/ha) | herbicidal effect rating, ECHORC ([3]; Rate 0.1250 kg/ha) | herbicidal effect rating, ECHORC ([3]; Rate 0.2500 kg/ha) | herbicidal effect rating, CYPSE ([4]; Rate 0.0320 kg/ha) | herbicidal effect rating, CYPSE ([4]; Rate 0.0620 kg/ha) | herbicidal effect rating, CYPSE ([4]; Rate 0.2500 kg/ha) | herbicidal effect rating, CYPIR (Cyperus iria; Rate 0.2500 kg/ha) | further results |
| --- | --- | --- | --- | --- | --- | --- | --- | --- | --- | --- | --- | --- | --- | --- | --- | --- | --- | --- | --- | --- | --- |
| COc1cccc(-c2nsc3ccc(-n4c(=O)cc(C(F)(F)F)n(C)c4=O)cc23)c1 [Example 301, 2,4(1H,3H)-Pyrimidinedione, 3-[3-(m-methoxyphenyl)-1,2-benzisothiazol-5-yl]-1-methyl-6-(trifluoromethyl)-] | 9.0 | 9.0 | 9.0 | 9.0 | 1.0 | 1.0 | 2.5 | 3.5 | 2.0 | 4.5 | 7.0 | 8.5 | 9.0 | 9.0 | 9.0 | 9.0 | 9.0 | 9.0 | 9.0 | 9.0 | herbicidal effect rating, CYPSE ([4]; Rate 0.1250 kg/ha): 9.0; herbicidal effect rating, CYPIR (Cyperus iria; Rate 0.0320 kg/ha): 9.0; herbicidal effect rating, CYPIR (Cyperus iria; Rate 0.0620 kg/ha): 9.0; herbicidal effect rating, CYPIR (Cyperus iria; Rate 0.1250 kg/ha): 9.0 |
| C[C@H](Br)[C@H](Br)c1nsc2ccc(-n3c(=O)cc(C(F)(F)F)n(C)c3=O)cc12 [Example 302, 2,4(1H,3H)-Pyrimidinedione, 3-[3-(1,2-dibromopropyl)-1,2-benzisothiazol-5-yl]-1-methyl-6-(trifluoromethyl)-, (1R,2S)-] | 7.0 | 7.0 | 9.0 | 9.0 | 1.0 | 4.5 | 7.0 | 8.0 | 0.0 | 0.0 | 9.0 | 9.0 | 4.0 | 5.0 | 8.0 | 8.5 | 4.5 | 4.5 | 6.0 | 8.5 | herbicidal effect rating, CYPSE ([4]; Rate 0.1250 kg/ha): 4.5; herbicidal effect rating, CYPIR (Cyperus iria; Rate 0.0320 kg/ha): 8.0; herbicidal effect rating, CYPIR (Cyperus iria; Rate 0.0620 kg/ha): 8.0; herbicidal effect rating, CYPIR (Cyperus iria; Rate 0.1250 kg/ha): 8.5 |
| C[C@@H](Br)[C@H](Br)c1nsc2ccc(-n3c(=O)cc(C(F)(F)F)n(C)c3=O)cc12 [Example 303, 2,4(1H,3H)-Pyrimidinedione, 3-[3-(1,2-dibromopropyl)-1,2-benzisothiazol-5-yl]-1-methyl-6-(trifluoromethyl)-, (1R,2R)-] | 7.0 | 9.0 | 9.0 | 9.0 | 2.0 | 4.5 | 5.0 | 7.5 | 2.0 | 2.0 | 8.5 | 9.0 | 2.5 | 7.5 | 9.0 | 9.0 | 0.0 | 4.0 | 6.0 | 8.5 | herbicidal effect rating, CYPSE ([4]; Rate 0.1250 kg/ha): 5.0; herbicidal effect rating, CYPIR (Cyperus iria; Rate 0.0320 kg/ha): 8.0; herbicidal effect rating, CYPIR (Cyperus iria; Rate 0.0620 kg/ha): 8.0; herbicidal effect rating, CYPIR (Cyperus iria; Rate 0.1250 kg/ha): 8.5 |
| Cn1c(C(F)(F)F)cc(=O)n(-c2ccc3snc(CN(C(=O)OC(C)(C)C)S(C)(=O)=O)c3c2)c1=O [Example 304, Carbamic acid, {{5-[3,6-dihydro-3-methyl-2,6-dioxo-4-(trifluoromethyl)-1(2H)-pyrimidinyl]-1,2-benzisothiazol-3-yl}methyl}(methylsulfonyl)-, tert-butyl ester] | 0.0 | 7.0 | 7.0 | 9.0 | 0.0 | 2.0 | 4.0 | 4.0 | 0.0 | 0.0 | 0.0 | 0.0 | 0.0 | 0.0 | 0.0 | 0.0 | 0.0 | 0.0 | 0.0 | 9.0 | herbicidal effect rating, CYPSE ([4]; Rate 0.1250 kg/ha): 0.0; herbicidal effect rating, CYPIR (Cyperus iria; Rate 0.0320 kg/ha): 0.0; herbicidal effect rating, CYPIR (Cyperus iria; Rate 0.0620 kg/ha): 4.0; herbicidal effect rating, CYPIR (Cyperus iria; Rate 0.1250 kg/ha): 9.0 |
| COC(=O)CN(Cc1nsc2ccc(-n3c(=O)cc(C(F)(F)F)n(C)c3=O)cc12)S(C)(=O)=O [Example 306, Glycine, N-{{5-[3,6-dihydro-3-methyl-2,6-dioxo-4-(trifluoromethyl)-1(2H)-pyrimidinyl]-1,2-benzisothiazol-3-yl}methyl}-N-(methylsulfonyl)-, methyl ester] |  |  |  | 0.0 |  |  |  | 0.0 |  |  |  | 0.0 |  |  |  | 0.0 |  |  | 0.0 | 0.0 |  |
| CC(=O)c1nsc2ccc(-n3c(=O)cc(C(F)(F)F)n(C)c3=O)cc12 [Example 307, 2,4(1H,3H)-Pyrimidinedione, 3-(3-acetyl-1,2-benzisothiazol-5-yl)-1-methyl-6-(trifluoromethyl)-] | 6.0 | 8.0 | 9.0 | 9.0 | 5.0 | 6.0 | 8.5 | 9.0 | 0.0 | 1.0 | 6.5 | 9.0 | 6.0 | 5.0 | 8.5 | 9.0 | 0.0 | 3.5 | 9.0 | 7.5 | herbicidal effect rating, CYPSE ([4]; Rate 0.1250 kg/ha): 7.0; herbicidal effect rating, CYPIR (Cyperus iria; Rate 0.0320 kg/ha): 6.5; herbicidal effect rating, CYPIR (Cyperus iria; Rate 0.0620 kg/ha): 6.5; herbicidal effect rating, CYPIR (Cyperus iria; Rate 0.1250 kg/ha): 6.5 |
| CC(O)c1nsc2ccc(-n3c(=O)cc(C(F)(F)F)n(C)c3=O)cc12 (stereo not drawn) [Example 308, 2,4(1H,3H)-Pyrimidinedione, 3-[3-(1-hydroxyethyl)-1,2-benzisothiazol-5-yl]-1-methyl-6-(trifluoromethyl)-] | 0.0 | 0.0 | 0.0 | 0.0 | 5.0 | 5.0 | 6.0 | 7.0 | 0.0 | 0.0 | 3.0 | 9.0 | 5.0 | 5.0 | 6.0 | 9.0 | 0.0 | 0.0 | 9.0 | 0.0 | herbicidal effect rating, CYPSE ([4]; Rate 0.1250 kg/ha): 3.0; herbicidal effect rating, CYPIR (Cyperus iria; Rate 0.0320 kg/ha): 0.0; herbicidal effect rating, CYPIR (Cyperus iria; Rate 0.0620 kg/ha): 0.0; herbicidal effect rating, CYPIR (Cyperus iria; Rate 0.1250 kg/ha): 0.0 |
| Cn1c(C(F)(F)F)cc(=O)n(-c2ccc3snc(CN=C=S)c3c2)c1=O [Example 311, Isothiocyanic acid, {5-[3,6-dihydro-3-methyl-2,6-dioxo-4-(trifluoromethyl)-1(2H)-pyrimidinyl]-1,2-benzisothiazol-3-yl}methyl ester] | 0.0 | 9.0 | 9.0 | 9.0 | 0.0 | 0.0 | 2.0 | 2.0 | 0.0 | 0.0 | 0.0 | 0.0 | 0.0 | 0.0 | 0.0 | 0.0 | 0.0 | 0.0 | 0.0 | 9.0 | herbicidal effect rating, CYPSE ([4]; Rate 0.1250 kg/ha): 0.0; herbicidal effect rating, CYPIR (Cyperus iria; Rate 0.0320 kg/ha): 0.0; herbicidal effect rating, CYPIR (Cyperus iria; Rate 0.0620 kg/ha): 9.0; herbicidal effect rating, CYPIR (Cyperus iria; Rate 0.1250 kg/ha): 9.0 |
